Laboratory results taken from US7507739B2, “6-[(substituted)phenyl]triazolopyrimidines as anticancer agents” (Wyeth, priority 2003, dated 2009).

Columns and labels:
MAP-rich tubulin = assay: Tubulin polymerization test with MAP-rich tubulin; assay type: biochemical, bovine; settings: 0.3 μM compound, 20 min, fold enhancement over control
Procedure: (§1) Medium is RPMI-1640 with L-glutamine, supplemented with 10% heat-inactivated fetal calf serum, 100 units/ml penicillin, and 100 μg/ml streptomycin (Gibco, Grand Island, N.Y.). Microtubule-associated protein (MAP)-rich tubulin, containing about 70% tubulin and 30% MAPs (#ML113), and highly purified tubulin (>99% pure, #TL238), both from bovine brain, are obtained from Cytoskeleton, Inc., Denver, Colo. PEM buffer (80 mM piperazine-N,N′-bis[2-ethanesulfonic acid], pH 6.9, 1 mM ethylene glycol-bis(β-aminoethyl ether)-N,N,N′,N′-tetraacetic acid, 1 mM magnesium chloride) and guanosine 5′-triphosphate (GTP) are also obtained from Cytoskeleton. [3H]paclitaxel, specific activity 14.7 Ci/mmol, is purchased from Moravek Biochemicals (Brea, Calif.). [^3H]vinblastine, specific activity 9.60 Ci/mmol and MicroSpin G-50 columns are obtained from Amersham Biosciences (Piscataway, N.J.). […] Other reagents are obtained from Sigma (St. Louis, Mo.).
(§2) Two variations of this procedure are done, one using MAP-rich tubulin and one using pure tubulin.
MAP-rich tubulin is dissolved in ice-cold PEM buffer containing 1 mM GTP (GPEM buffer) at a concentration of 1.3 mg/mL. The solution is centrifuged at top speed in an Eppendorf model 5415C microcentrifuge (Brinkmann Instruments, Westbury, N.Y.) for 10 min at […] immediately before use. The tubulin solution is added to wells of a ½-area 96-well plate (Costar No. 3696, Corning, Inc., Corning, N.Y.) already containing the compounds of interest. Each compound is tested in duplicate at a final concentration of 0.3 μM in a volume of 110 μL per well. The final DMSO concentration in all wells is 0.3%. Control reactions, which received compound solvent only, are done in quadruplicate. The plate is put in a SpectraMax Plus plate reader (Molecular Devices Corp. Sunnyvale, Calif.) thermostated at 24° and the absorbance of each well at 340 nm, a measure of the appearance of turbidity due to tubulin polymer formation, is determined every minute for 60 minutes. The absorbance at time 0 for each well is subtracted from each of the subsequent absorbance readings for that well, and then the duplicates are averaged.
In this assay, control reactions with MAP-rich tubulin show an S-shaped absorbance profile characterized by three phases: first, a lag phase during which no change in absorbance occurs; second, a polymerization phase in which absorbance increases; and third, a plateau phase in which absorbance has reached a maximum and little or no further change occurs. Polymerization enhancers such as paclitaxel and docetaxel shorten or eliminate the lag phase, increase the rate of the polymerization phase, and often increase the height of the plateau. […] The compounds of this invention have a taxane-like effect on the polymerization reaction. This has been expressed quantitatively in Table 5 by dividing the mean A340 of each sample at 20 min by the mean A340 of the control at 20 min to give a fold enhancement over control. […] Examples of this invention have factors ranging up to 8.1, with the majority in the 5 to 6-fold range.

tubulin heterodimer [1] = assay: Competitive binding test, [3H]vinblastine; set-up: species or system bovine; settings: [3H]vinblastine 100 nM
Procedure: as §1
(§3) The binding of examples of this invention to highly purified tubulin is studied by competitive inhibition methods. […] To study possible competition at the taxane site, on the other hand, polymerized tubulin (microtubules) is used because paclitaxel binds preferentially to microtubules.
(§4) Highly purified tubulin is dissolved in PEM buffer without GTP and used at a final concentration of 1.0 to 1.3 mg/ml (10 to 13 μM). […] These solutions are incubated at 24° for 1 hr and then applied to MicroSpin G-50 columns which are centrifuged for 2 min at 3000 rpm in an Eppendorf 5415C microfuge. An aliquot of each column effluent (containing tubulin and bound radioligand) is mixed with scintillation fluid and counted in a liquid scintillation spectrometer. […] The ability of the competitor to inhibit the binding of the radioligand is expressed as a percentage of control binding in the absence of any competitor.

microtubules = assay: Competitive binding test, [3H]paclitaxel; set-up: species or system bovine; settings: [3H]paclitaxel 2.1 μM, competitor 20 μM (5 μM for unlabeled paclitaxel)
Procedure: as §1, §3
For competition with [^3H]paclitaxel, highly purified tubulin is dissolved in PEM buffer containing 0.75 M glutamate and 25 μM dideoxy-GTP; final protein concentration is 0.25 to 0.35 mg/mL (2.5 to 3.5 μM). These conditions foster the rapid formation of short, stable microtubule polymers (Hamel, E., del Campo, A. A., and Lin, C. M. Stability of tubulin polymers formed with dideoxyguanosine nucleotides in the presence and absence of microtubule-associated proteins. J. Biol. Chem., 259: 2501-2508, 1984). This solution is incubated for 30 min at 37° to allow microtubules to form. Then [^3H]paclitaxel (final concentration of 2.1 μM, 1.2 Ci/mmol) and competitor (final concentration of 20 μM, except 5 μM for unlabeled paclitaxel) are added to aliquots of the polymerized tubulin solution and incubation at 37° is continued for another 30 min. […] The reactions are then centrifuged at top speed in an Eppendorf 5415C microfuge for 20 min at room temperature in order to pellet the microtubule protein. Triplicate aliquots of each supernatant are mixed with scintillation fluid and counted in a liquid scintillation spectrometer. From the amount of radioactivity in the supernatants and the measured total starting radioactivity, the amount of [^3H]paclitaxel bound to pelleted microtubule protein is calculated. The ability of each competitor to inhibit radioligand binding to pelleted protein is expressed as a percent of controls without any competitor.

COLO 205 cells = assay: MTS cytotoxicity test with COLO 205 cells; assay type: cell-based, human; settings: 3 days
Method in brief: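 COLO 205 human colon carcinoma cells, 1000 per well, exposed 3 days at 37° C to nine 2-fold dilutions, typical final top concentration 5 μM. MTS absorbance normalized to time-0 plate; IC50 is concentration giving colour yield midway between untreated and fully killed controls.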

pure tubulin = assay: Tubulin polymerization test with pure tubulin without GTP; assay type: biochemical, bovine; settings: no GTP
Procedure: as §1, §2
The procedure with pure tubulin is similar except for the following changes. […] The supernatant after centrifugation is dispensed to a 96-well plate already containing compounds. Each compound is tested in duplicate at six serial 3-fold dilutions starting at 24.3 μM. The plate reader is thermostated at 35°.

tubulin heterodimer [2] = assay: Competitive binding test, [3H]colchicine; set-up: species or system bovine; settings: [3H]colchicine 50 nM
Procedure: as §1, §3, §4

KB-V1 cells = assay: MTS cytotoxicity test with KB-V1 cells (very high P-glycoprotein); assay type: cell-based, human; settings: IC50 on KB VI cells/IC50 on KB cells
Description: (§5) Human cancer cell lines, unless otherwise noted, are obtained from the American Type Culture Collection (Rockville, Md.). The following drug-sensitive parental cell lines, and their derived drug-resistant counterparts, are obtained from the originators as listed: (a) S1 (parental line from a subclone of human colon carcinoma line LS174T) and derived S1-M1-3.2 (herein called S1-M1) which expresses the MXR drug transporter protein, are provided by Dr. L. Greenberger, Wyeth Research (Rabindran, S. K., He, H., Singh, M., Brown, E., Collins, K. I., Annable, T., and Greenberger, L. M. Reversal of a novel multidrug resistance mechanism in human colon carcinoma cells by fumitremorgin C. Cancer Res., 58:5850-5858,1998); (b) parental HL-60 human promyelocytic leukemia line and derived HL-60/ADR, which expresses the MRP1 drug transporter protein, are provided by Dr. M. Center, University of Kansas (McGrath, T., and Center, M. S. Adriamycin resistance in HL60 cells in the absence of detectable P-glycoprotein. Biochem. Biophys. […] J. Biol. Chem., 261: 7762-7770,1986) via Dr. L. Greenberger, Wyeth Research.
(§6) The assay, which is sold in kit form by Promega (Madison, Wis.; CellTiter 96 AQueous Non-Radioactive Cell Proliferation Assay), is based on the conversion by viable cells, but not by dead cells, of the tetrazolium salt, MTS (3-(4,5-dimethylthiazol-2-yl)-5-(3-carboxymethoxyphenyl)-2-(4-sulphophenyl)-2H-tetrazolium, inner salt), into a water-soluble colored formazan which is detected by spectrophotometry. Compounds are tested at nine concentrations, in order to determine IC50 values. For the test procedure, cells are harvested by trypsinization (or, in the case of non-adherent cells, by simple resuspension), washed, counted and distributed to wells of 96-well flat-bottom microtiter plates at 1000 cells per well in 200 μL of medium. In addition, one row of wells on a separate plate received cells as above (“time 0” plate). All plates are incubated at 37° in humidified 5% CO2 in air for about 24 hr.
(§7) On day 2, compounds for test are diluted and added to wells. Compounds are dissolved in DMSO at 10 mg/mL. For each compound, nine serial 2-fold dilutions are prepared in DMSO. Ten μL of each dilution in DMSO is transferred to 100 μL of medium, mixed well, and then 5 μL of this dilution is transferred in quadruplicate to wells containing cells. […] Plates are returned to the incubator for three days. At the time of drug addition to the experimental plates, the MTS assay is run on the “time 0” plate. This produced the “time 0 MTS value” which is related to the number of viable cells per well at the time of drug addition.
(§8) After three days of culture with test compounds (day 5 overall), the MTS assay is done on all wells of the experimental plates. The absorbance values of the quadruplicate sample wells are averaged and divided by the average of the “time 0” values. […] The nine values for each compound are plotted against concentration, and the concentration that produced a relative color yield half way between the maximum and minimum is taken as the IC50 value.
(§9) The KB lines express different amounts of the P-glycoprotein (MDR1) membrane pump which produces resistance to the action of many cytotoxic compounds, including paclitaxel and vincristine. The parental KB line expresses no P-glycoprotein, KB-8-5 expresses moderate levels of the protein, and KB-V1 expresses very high levels.

KB-8-5 cells = assay: MTS cytotoxicity test with KB-8-5 cells (moderate P-glycoprotein); assay type: cell-based, human
Description: as §5, §6, §7, §8, §9

HL-60/ADR cells = assay: MTS cytotoxicity test with HL-60/ADR cells (MRP1); assay type: cell-based, human; settings: IC50 on HL-60/ADR cells/IC50 on HL-60 cells
Description: as §5, §6, §7, §8
(§10) HL-60/ADR cells overexpress the multidrug resistance protein MRP1 which mediates resistance to some chemotherapeutics (Gottesman, M. M., Fojo, T., and Bates, S. E. Multidrug resistance in cancer: role of ATP-dependent transporters. Nature Rev. Cancer, 2: 48-58, 2002). The IC50 values of representative examples of this invention, as well as reference compounds, on HL-60/ADR are compared to values on the sensitive parental HL-60 line.

S1 cells = assay: MTS cytotoxicity test with S1 cells; assay type: cell-based; settings: Homo sapiens
Description: as §5, §6, §7, §8
as §10, with “S1-M1” for “HL-60/ADR”, “MXR transporter” for “multidrug resistance protein MRP1”, “Miltidrug” for “Multidrug”, “S1” for “HL-60”

KB cells = assay: MTS cytotoxicity test with KB cells; assay type: cell-based; settings: Homo sapiens; KB cells, MTS; read-out: IC50 KB
Description: as §5, §6, §7, §8, §9

HL-60 cells = assay: MTS cytotoxicity test with HL-60 cells; assay type: cell-based; settings: Homo sapiens; HL-60 cells, MTS; read-out: IC50 HL-60
Description: as §5, §6, §7, §8, §10

S1-M1 cells = assay: MTS cytotoxicity test with S1-M1 cells (MXR); assay type: cell-based, human; settings: for Ratio: IC50 on S1-M1 cells/IC50 on S1 cells
Description: as §5, §6, §7, §8
as §10, with “S1-M1” for “HL-60/ADR”, “MXR transporter” for “multidrug resistance protein MRP1”, “Miltidrug” for “Multidrug”, “S1” for “HL-60”

## C[C@H](Nc1c(-c2c(F)cc(OCCCN3CCOCC3)cc2F)c(Cl)nc2ncnn12)C(F)(F)F.Cl [Example 11a, 5-Chloro-6-[2,6-difluoro-4-(3-morpholin-4-ylpropoxy)phenyl]-N-[(1S)-2,2,2-trifluoro-1-methylethyl][1,2,4]triazolo[1,5-a]pyrimidin-7-amine Hydrogen chloride]
MAP-rich tubulin
  A340 Compound/A340 Control: 6.8
Tubulin heterodimer [1]
  [3H]Vinblastine binding, percent of control without competitor, Mean: 12%
microtubules
  [3H]Paclitaxel binding, percent of control without competitor, Mean: 107%
COLO 205 cells
  IC50: 51 nM
Pure tubulin; 2.7 μM
  absorbance increase, polymerization of pure tubulin: no effect
Pure tubulin; 8.1 μM
  absorbance increase, polymerization of pure tubulin: lower and less rapid increase
Pure tubulin; 24.3 μM
  A340 at 0 min: 0
  A340 at 5 min: 0.24
  A340 at 10 min: 0.24
  A340 at 15 min: 0.23
  A340 at 20 min: 0.22
Pure tubulin; 24.3 μM, first 5 min
  absorbance increase, polymerization of pure tubulin: rapid increase in absorbance
Tubulin heterodimer [2]
  [3H]Colchicine binding, percent of control without competitor, Mean: 121%

## O=C1c2c(O)ccc(O)c2C(=O)c2c(NCCNCCO)ccc(NCCNCCO)c21 [Mitoxantrone, reference compound]
KB-V1 cells
  Ratio VI/KB: 77
KB-8-5 cells; Homo sapiens, KB-8-5 cells, MTS, read-out: IC50 KB 8.5
  IC50: 27 nM
KB-8-5 cells; IC50 on KB 8.5 cells/IC50 on KB cells
  Ratio 8.5/KB: 1.1
HL-60/ADR cells
  Ratio: 17
S1 cells
  IC50: 10 nM
KB cells
  IC50: 25 nM
HL-60 cells
  IC50: 9.5 nM
S1-M1 cells; Homo sapiens, S1-M1 cells, MTS, read-out: IC50 S1-M1
  IC50: > 3000 nM
S1-M1 cells
  Ratio: >300
S1-M1 cells; listed as mitoxantrone
  Ratio: > 300
